Columns and labels:
Format in all cases: binding
Integrin αvβ3 receptor [1] = target: T1, Integrin αvβ3 receptor (Homo sapiens, UniProt P05106+P06756); assay: Selection of Library 1 and Library 2 (61,875 members each) for binders of the Integrin αvβ3 receptor, then building block abundance analysis; details: value = library (1, 2) in which it was more abundant after selection; for More abundant in position 3 in library no.: building block chosen for Library 3 position 3; for More abundant in position 2 in library no.: building block chosen for Library 3 position 2
T1 sequence (P06756 31-889 limits assumed): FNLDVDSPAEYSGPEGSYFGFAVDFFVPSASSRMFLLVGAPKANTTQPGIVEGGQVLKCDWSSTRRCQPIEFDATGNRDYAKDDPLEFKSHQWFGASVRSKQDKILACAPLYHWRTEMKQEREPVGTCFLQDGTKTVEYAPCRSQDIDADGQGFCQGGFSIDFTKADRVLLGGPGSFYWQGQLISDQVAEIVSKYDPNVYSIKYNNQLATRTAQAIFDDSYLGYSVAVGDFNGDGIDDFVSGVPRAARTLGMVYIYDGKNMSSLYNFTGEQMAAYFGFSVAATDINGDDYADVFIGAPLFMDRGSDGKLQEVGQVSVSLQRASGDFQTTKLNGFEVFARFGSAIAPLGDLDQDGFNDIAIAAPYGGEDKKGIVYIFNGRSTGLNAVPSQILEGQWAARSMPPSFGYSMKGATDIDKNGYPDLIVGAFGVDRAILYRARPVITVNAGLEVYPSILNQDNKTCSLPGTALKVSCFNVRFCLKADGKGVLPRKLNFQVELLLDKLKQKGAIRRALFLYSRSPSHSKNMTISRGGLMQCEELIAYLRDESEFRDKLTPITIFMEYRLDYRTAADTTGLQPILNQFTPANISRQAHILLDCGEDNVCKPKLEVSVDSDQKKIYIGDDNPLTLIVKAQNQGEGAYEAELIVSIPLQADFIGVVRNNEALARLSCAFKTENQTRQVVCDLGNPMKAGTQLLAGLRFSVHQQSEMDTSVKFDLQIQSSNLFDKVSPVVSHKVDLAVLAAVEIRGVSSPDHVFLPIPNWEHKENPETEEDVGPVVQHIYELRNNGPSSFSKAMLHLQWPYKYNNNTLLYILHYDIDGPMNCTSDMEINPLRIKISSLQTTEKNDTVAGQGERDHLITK
T1 sequence (P06756 891-1048 partner limits assumed): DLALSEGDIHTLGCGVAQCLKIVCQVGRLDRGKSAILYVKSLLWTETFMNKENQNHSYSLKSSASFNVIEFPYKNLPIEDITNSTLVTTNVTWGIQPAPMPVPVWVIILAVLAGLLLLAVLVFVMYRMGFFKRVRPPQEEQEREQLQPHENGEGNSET
T1 sequence (P05106 27-788): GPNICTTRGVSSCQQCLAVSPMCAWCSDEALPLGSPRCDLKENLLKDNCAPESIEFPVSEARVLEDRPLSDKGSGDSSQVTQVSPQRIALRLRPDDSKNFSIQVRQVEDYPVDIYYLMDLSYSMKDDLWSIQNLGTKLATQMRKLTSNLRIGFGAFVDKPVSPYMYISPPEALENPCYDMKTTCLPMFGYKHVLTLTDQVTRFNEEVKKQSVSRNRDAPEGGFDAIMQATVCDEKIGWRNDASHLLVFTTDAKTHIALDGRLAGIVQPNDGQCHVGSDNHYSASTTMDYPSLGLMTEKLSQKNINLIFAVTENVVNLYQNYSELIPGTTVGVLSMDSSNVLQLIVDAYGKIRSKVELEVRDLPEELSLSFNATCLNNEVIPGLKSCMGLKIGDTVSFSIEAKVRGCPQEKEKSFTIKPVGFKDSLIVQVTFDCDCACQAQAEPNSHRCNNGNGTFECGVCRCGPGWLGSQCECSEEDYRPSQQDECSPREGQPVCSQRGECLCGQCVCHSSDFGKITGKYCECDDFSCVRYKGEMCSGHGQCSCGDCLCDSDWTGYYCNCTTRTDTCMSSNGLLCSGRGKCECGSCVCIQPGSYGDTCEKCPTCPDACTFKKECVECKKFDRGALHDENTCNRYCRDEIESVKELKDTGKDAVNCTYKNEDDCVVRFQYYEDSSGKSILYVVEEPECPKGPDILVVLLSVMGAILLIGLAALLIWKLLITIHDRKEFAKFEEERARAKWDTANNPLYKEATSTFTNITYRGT
From the text: The following scheme describes the split and mix assembly of the libraries: • i.) n times [BB1+Oligo1→BB1−Oligo1] in separate wells • Optionally purify product • ii.) mix all n wells into one tube • iii.) split product of ii.) into m separate wells • iv.) m times [BB2+BB1−Oligo1+Oligo2→BB2−BB1−Oligo1−Oligo2] in separate wells • Optionally purify product • v.) mix all m wells into one tube • vi.) split product of v.) into p separate wells • vii.) p times [BB3+BB2−BB1−Oligo1−Oligo2+Oligo3→BB3−BB2−BB1−Oligo1−Oligo2−Oligo3] in separate wells Optionally purify product • viii.) mix all p wells into one tube • ix.) Selection was performed and binders isolated • x.) PCR of DNA and sequencing • xi.) Analyse for building block abundancy and full sequence information
Building block abundances analysis may be done by QPCR or by sequencing full sequences and then analyzing for the abundance of individual building blocks.
Two libraries of 61,875 members (Library 1 and 2) were generated as described in example 6 above and selected for binders of the Integrin αvβ3 receptor separately. The libraries were generated with 99 different building blocks in position 1, 25 different building blocks in position 2 and 25 different building blocks in position 3.
(§1) The identified sequences were then analyzed for the abundances of building blocks at each position in the sequence. The most abundant building blocks at each position from the two libraries 1 and 2 were then used again to generate a new and smaller library of 1,365 members, which was selected for binders of the Integrin αvβ3 receptor. The library was generated with 7 different building blocks in position 1, 13 different building blocks in position 2 and 15 different building blocks in position 3.

integrin aVβ3 = integrin aVβ3 (Homo sapiens, UniProt P05106+P06756); assay: Selection of the 700-member encoded library on immobilised integrin aVβ3, then PCR, cloning and sequencing of identifier codons; details: for Count (times the chemical entity's codon was seen after selection): 700-member library after selection, single building block at its position; for Count (times the chemical entity's codon was seen after selection) / share of sequences containing the chemical entity after selection: out of 51 sequences
Sequence of integrin aVβ3 (P06756 31-889 limits assumed): as the sequence (P06756 31-889 limits assumed) above
Sequence of integrin aVβ3 (P06756 891-1048 partner limits assumed): as the sequence (P06756 891-1048 partner limits assumed) above
Sequence of integrin aVβ3 (P05106 27-788): as the sequence (P05106 27-788) above
Method: Maxisorp ELISA wells (NUNC A/S, Denmark) were coated with each 100 μL 2 μg/mL integrin aVβ3 in PBS buffer [2.8 mM NaH2PO4, 7.2 mM Na2HPO4, 0.15 M NaCl, pH 7.2] overnight at 4° C. Then the integrin solution was substituted for 200 μl blocking buffer [TBS, 0.05% Tween 20 (Sigma P-9416), 1% bovine serum alnumin (Sigma A-7030), 1 mM MnCl2] which was left on for 3 hours at room temperature. Then the wells were washed 10 times with blocking buffer and the encoded library was added to the wells after diluting it 100 times with blocking buffer. Following 2 hours incubation at room temperature the wells were washed 10 times with blocking buffer. After the final wash the wells were cleared of wash buffer and subsequently inverted and exposed to UV light at 300-350 nm for 30 seconds using a trans-illuminator set at 70% power. Then 100 μl blocking buffer without Tween-20 was immediately added to each well, the wells were shaken for 30 seconds, and the solutions containing eluted identifiers were removed for PCR amplification.
A TOPO-TA (Invitrogen) ligation reaction is assembled with 4 μl PCR product, 1 μl salt solution (Invitrogen) and 1 μl vector. Water is added to 6 μl. The reaction is then incubated at RT for 30 min. Heat-shock competent TOP10 E. coli cells are then thawed on ice and 5 μl of the ligation reaction is added to the thawed cells. The cells are then incubated 30 min on ice, heatshocked in 42° C. water for 30 sec, and then put on ice again. 250 μl of growth medium is added to the cells and they are incubated 1 h at 37° C. The medium containing cells is then spread on a growth plate containing 100 μg/ml ampicillin and incubated at 37° C. for 16 hours.
Individual E. coli clones are then picked and transferred to PCR wells containing 50 μl water. These 50 μl were incubated at 94° C. for 5 minutes and used in a 20 μl in a 25 μl PCR reaction with […] of each TOPO primer M13 forward & M13 reverse and Ready-To-Go PCR beads (Amersham Biosciences). The following PCR profile is used: 94° C. 2 min, then 30×(94° C. 4 sec, 50° C. 30 sec, 72° C. 1, min) then 72° C. 10 min. Primers and nucleotides are then degraded by adding 1 μl 1:1 EXO/SAP mixture (USB corp.) to 2 μl PCR product and incubating at 37° C. for 15 min and then 80° C. for 15 min to heat-inactivate the enzymes. […] T7 primer is added and water is added to 12 μl. Then 8 μl DYEnamic ET cycle sequencing Terminator Mix (Applied biosystems) is added to each well. A thermocycling profile of 30×(95° C. 20 sec, 50° C. 15 sec, 60° C. 1 min) is then run. Then 10 μl water is added to each well and sequencing reactions are purified using seq96 spinplates (Amersham Biosciences). Reactions are then run on a MegaBace capillary electrophoresis instrument (Molecular Dynamics) using injection parameters 2 kV, 50 sec and run parameters: 9 kV 45 min and analyzed using Contig Express software (Informax).
After the selection as described above, the codons in the identifier oligonucleotides were analysed. Before the analysis, the identifier oligonucleotides were amplified using the constant flanking regions and the amplified material was used in the identifier sequence analysis.

Integrin αvβ3 receptor [2] = target: T1, Integrin αvβ3 receptor; assay: Selection of the second-generation library (Library 3, 1,365 members) for binders of the Integrin αvβ3 receptor, then sequencing of isolated identifiers; details: 31 analysed sequences
Method: as §1
A subset of the isolated sequences from the library post selection was analysed:
These sequences could be translated into the following building block compositions: […]

| SMILES | Count (times the chemical entity's codon was seen after selection) (integrin aVβ3) | further results |
| --- | --- | --- |
| N[C@@H](CC(=O)O)C(=O)O [BB-A-000098, L-Asp] | 47 | More abundant in position 3 in library no. (Integrin αvβ3 receptor [1]): 1; share of the chemical entity before the selection (integrin aVβ3): 25%; share of sequences containing the chemical entity after selection (integrin aVβ3): 92%; building block abundance per position in sequences isolated post selection (Integrin αvβ3 receptor [2]): dominated |
| C=CCCC(=O)N1CCC[C@@H]1C(=O)O [BBA000064] | 1 |  |
| C=CCCC(=O)N[C@@H](C)CC(=O)O [BBA000099, Gly] | 14 | share of the chemical entity before the selection (integrin aVβ3): 4%; share of sequences containing the chemical entity after selection (integrin aVβ3): 27%; building block abundance per position in sequences isolated post selection (Integrin αvβ3 receptor [2]): dominated |
| N[C@H](CC(=O)O)C(=O)O [BBA000152, D-Asp] |  | More abundant in position 1 in library no. (Integrin αvβ3 receptor [1]; building block chosen for Library 3 position 1): 1; More abundant in position 2 in library no. (Integrin αvβ3 receptor [1]): 2; building block abundance per position in sequences isolated post selection (Integrin αvβ3 receptor [2]): also found |
| O=C(O)CCCNc1ccccn1 [BBA0000531] | 35 | More abundant in position 3 in library no. (Integrin αvβ3 receptor [1]): 2; share of the chemical entity before the selection (integrin aVβ3): 14%; share of sequences containing the chemical entity after selection (integrin aVβ3): 68% |
| C=CCCC(=O)NCC(=O)O [BBA0000592] |  | More abundant in position 2 in library no. (Integrin αvβ3 receptor [1]): 1 |
| C=CCCC(=O)N1CCCC(C(=O)O)C1 (stereo not shown) [BBA0000832] |  | More abundant in position 2 in library no. (Integrin αvβ3 receptor [1]): 1 |
| O=C(O)CCCc1ccc2c(n1)NCCC2 [BBA0001006] | 4 |  |
| C=CCCC(=O)C(CCC(=O)O)CC1CC1 (stereo not shown) [BBA0001011] | 1 |  |
| C=CCCC(=O)N(CCC)CCC(=O)O [BBA0001101] | 2 |  |
| CC(CCC(=O)O)Nc1ccccn1 (stereo not shown) [BBA0001391] | 9 | More abundant in position 3 in library no. (Integrin αvβ3 receptor [1]): 2 |
| CC(CCCC(=O)O)Nc1ccccn1 (stereo not shown) [BBA0001401] |  | More abundant in position 3 in library no. (Integrin αvβ3 receptor [1]): 2 |
| C=CCCC(=O)N1CC(C(=O)O)C1 [BBA0001582] | 13 |  |
| C=CCCC(=O)NCc1cccc(C(=O)O)c1 [BBA0003132] | 1 |  |
| C=CCCC(=O)N1CCC[C@H]1C(=O)O [BBA0003142] | 1 |  |
| C=CCCC(=O)N[C@H]1CCCC[C@H]1C(=O)O [BBA0003152] | 1 |  |
| C=CCCC(=O)NCc1ccc(C(=O)O)cc1 [BBA0003172] | 2 |  |
| C=CCCC(=O)NCCCC(=O)O [BBA0004182] | 5 |  |
| C=CCCC(=O)N[C@H]1CC[C@@H](C(=O)O)C1 [BBA0004212] | 2 |  |
| C=CCCC(=O)N[C@@H]1CC[C@H](C(=O)O)C1 [BBA0004222] |  | More abundant in position 2 in library no. (Integrin αvβ3 receptor [1]): 2 |
| C=CCCC(=O)N1CCCC[C@H]1C(=O)O [BBA0004232] | 2 |  |
| C=CCCC(=O)N1CCCC[C@@H]1C(=O)O [BBA0004242] | 6 |  |
| CC(C)(C)OC(=O)NC(CCCCNC(=O)c1ccccn1)C(=O)O (stereo not shown) [BBA0008312] | 1 |  |
| O=C(O)c1csc(-c2cccnc2)n1 [BBA0008512] | 2 |  |
